According to patent US11331339B2, “Compound composition with function of promoting bone and joint health and application thereof” (Chenland Nutritionals, Inc., priority 2019, dated 2022):

Key:
[1] = tested on: wistar rats injected with papain; test: Test II: tenderness thresholds at modeling joints, measured with a tenderness meter; format: in vivo; conditions: papain model, 28 days, daily dosage 126 mg/kg
Method: Male wistar rats are randomly divided into a control group, a model group and an experimental group. Each group includes 10 rats. The rats are injected with papain for molding. The rats are administered for 28 days at the same time of molding. Before the rats are put to death, the tenderness thresholds at modeling joints are measured with a tenderness meter.

[2] = tested on: wistar rats injected with papain; test: Test IV: walking pain score from sole marks; format: in vivo; conditions: score 0-4, papain model, 28 days, daily dosage 126 mg/kg
Method: Male wistar rats are randomly divided into a control group, a model group and an experimental group. Each group includes 10 rats. The rats are injected with papain for molding. The rats are administered for 28 days at the same time of molding. Before the rats are put to death, the left and right soles of the rats are evenly imprinted with printing ink of the same color and the rats walk by 0.4 m on a self-made semi-closed rat walking passage. The sole marks are photographed. Three persons independently score the walking pain based on the sole photos according to the following scoring standard for walking pain and measure the walking pain (when the limbs have a pain reaction, the rats move with the minimum contact area of the paws to reduce the pressure on the affected limbs; and when the left and right feet are uneven in stress and the gait is changed, the colors of the soles are different). The sole is divided into four regions: if one region of the left sole is darker than the right sole, the score is 1; if two regions are darker, the score is 2; and the score is added in sequence (0-4 scores). […] The rats administered with the product can alleviate the arthritis to a certain extent, and can walk slightly normally, so as to reflect the degree of arthritis according to the walking scores.

[3] = tested on: IL-6; test: Test I: IL-6 content in serum of rats, same administration time and same dosage; format: in vivo, wistar rats; conditions: rat serum, daily dosage 125 mg/kg
Method: Male wistar rats are randomly divided into a control group, a model group and an experimental group. Each group includes 10 rats. The rats are injected with papain for molding. The rats are administered for 28 days at the same time of molding. Before the rats are put to death, blood is taken from the abdominal vein and centrifuged to obtain serum. The IL-1β content is detected. Specific results are shown in Table 1: In addition, to verify the technical solution of the present invention and small daily dosage of the single glucosamine, the inventor respectively experiments the male wistar rats in the same administration time and under the same administration dosage, and detects the IL-6 content in the serum.

[4] = tested on: IL-1β; test: Test I: IL-1β content in serum of rats injected with papain, administered 28 days; format: in vivo, wistar rats; conditions: rat serum, papain model, daily dosage 126 mg/kg
Method: Male wistar rats are randomly divided into a control group, a model group and an experimental group. Each group includes 10 rats. The rats are injected with papain for molding. The rats are administered for 28 days at the same time of molding. Before the rats are put to death, blood is taken from the abdominal vein and centrifuged to obtain serum. The IL-1β content is detected. Specific results are shown in Table 1: The blank group includes normal rats for arthritis modeling. The model group includes rats not administered after modeling. The experimental administration group administers the product of the present invention to the rats. The glucosamine sulfate control group administers glucosamine to the rats. The glucosamine+chondroitin sulfate+collagen control group administers glucosamine+chondroitin sulfate+collagen to the rats. IL-1β is an inflammatory factor in the serum. Normal rats contain the lowest levels of inflammatory factors, and the rats with arthritis but not administered contain the highest levels of inflammatory factors. If different products are administered to rats, the degree of arthritis is alleviated to a certain extent and the levels of inflammatory factors in the rats are reduced to be lower than that of the highest model group, but higher than normal rats.

## N[C@H]1C(O)O[C@H](CO)[C@@H](O)[C@@H]1O.O=S(=O)(O)O (some centres unmarked) [Glucosamine sulfate control group 1, Glucosamine sulfate]
[1]
  Tenderness thresholds: 5.607 ± 0.2602 newton
[2]
  Scores of walking pain: 0.5 ± 0.2303
[3]; listed as Glucosamine sulfate control group
  IL-6 content: 146.19 ± 18.15 ng/L
[3]; listed as glucosamine sulfate control group
  IL-6 content: not obviously lower than the model group
[4]
  IL-1β content: 9.456 ± 1.657 ng/L
